Data published in patent US20210084905A1, “METHODS AND COMPOSITIONS FOR AQUACULTURE” (priority 2018, published 2021).

Tests used:
[1] = test system: bacterial strains seeded into an agar soft overlay; assay: secretion assay, soft agar overlay (halo of inhibition); type: cell-based; details: secreted antibacterial compound
Experimental: Many other phenazine molecules including pyocyanin are shown to elicit antibacterial activity often by causing oxidative stress. To test whether the genes hit in the transposon insertion screen are required, two separate genes with insertions (orf6 & orf8) in the region of the operon were precisely deleted in A603 ΔvipA.
The spectrum of inhibition for the putative phenazine molecule was tested by seeding agar with a diverse set of laboratory and environmental strains using A603 ΔvipA and an isogenic double knockout A603 ΔvipA Δorf8 to score inhibition by appearance of a halo around A603 ΔvipA.

[2] = test system: V. cholerae O1 strain, H1; assay: sensitivity to the A603 phenazine; type: cell-based
Source text: GO annotations were not assigned to these genes thus they were not included in the hypergeometric and GSEA analyses. One gene (TMChrII_2378) encodes a protein with high structural conservation to heme monooxgenase and the other (TMChrI_2040) a dioxygenase that closely resembles a bleomycin resistance proteins. A second dioxygenase (TMChr1_3001) is also among the top induced genes. This family of dioxygenase proteins includes those that can bind and in some cases hydrolyze planar and aromatic antibacterial molecules including phenazines. Though amino acid sequence similarity is poor, the predicted structure of TMChr1_2040 is very similar to EphR, a protein that loosely binds phenazine in producer strains and confers resistance by binding molecules until export.

c1ccc2nc3ccccc3nc2c1 [A603 phenazine]
growth inhibition (halo) in soft agar overlay [1]: broad spectrum antibacterial activity | sensitivity of V. cholerae O1 strain H1 [2]: very sensitive
